This is an account of results in ChEMBL document CHEMBL1201862, “PubChem BioAssay data set” (2004).

Test systems include OVCAR-3; LOX IMVI; SNB-75; CAKI-1; SNB-19; SF-539; MDA-MB-435; Malme-3M; U-251; NCI/ADR-RES; SW-620; OVCAR-5; NCI-H522; HOP-62; M14; DU-145; EKVX; UACC-62; UACC-257; HOP-92.
Common to all, as to assay: NCI tumour cell line growth inhibition, 48 h

SMILES strings stand for the structures.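 Results reflect a 48-hour exposure of cells in 96-well plates to compound at five concentrations. GI50 = concentration required for 50% inhibition of growth.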 The source made the active and inactive calls. Rule as the data show it: active = GI50 up to about 1.1 µM and inactive = higher. Bounds are passed on as bounds.

Take `COc1cc(C)c(C2NC(=O)c3ccccc3N2)cc1C` (stereo unspecified): the GI50 was 0.127 µM (active) in the test with OVCAR-3; 0.451 µM (active) with LOX IMVI; 0.0543 µM (active) with SNB-75; 0.252 µM (active) in the test with CAKI-1; 0.468 µM (active) in the test on SNB-19; 0.229 µM (active) in the test with SF-539. Also, the GI50 is 0.0294 µM (active) with MDA-MB-435; 0.183 µM (active) in the test on Malme-3M; 0.396 µM (active) in the test with U-251; 0.149 µM (active) in the test on NCI/ADR-RES; 0.303 µM (active) with SW-620; 0.75 µM (active) in the test with OVCAR-5. Also, the GI50 in the test with NCI-H522 is 0.254 µM (active); with HOP-62, 1.36 µM (inactive); in the test on M14 it was 0.316 µM (active); in the test on DU-145 it was 0.4 µM (active); in the test on EKVX, 1.12 µM (inactive); in the test with UACC-62, 0.201 µM (active). In addition, the GI50 in the test with UACC-257 was 0.47 µM (active).
Regarding `Cc1c(/C=N/NC(=S)Nc2ccccc2Cl)c(=O)n(-c2ccccc2)n1C`, the GI50 is 34.1 µM (inactive) in the test on OVCAR-3; 55.3 µM (inactive) in the test on LOX IMVI; 25.9 µM (inactive) in the test with SNB-75; 19.7 µM (inactive) in the test on CAKI-1; 32.6 µM (inactive) in the test on SNB-19; 30.1 µM (inactive) with SF-539. For the same compound, the GI50 in the test with MDA-MB-435 was > 100 µM (inactive); in the test with Malme-3M, 32.7 µM (inactive); in the test on U-251, 30.3 µM (inactive); in the test with NCI/ADR-RES it was 20.2 µM (inactive); with SW-620, 39.9 µM (inactive); in the test on OVCAR-5 it was > 100 µM (inactive). In addition, the GI50 is 22.5 µM (inactive) in the test on NCI-H522; 22.7 µM (inactive) in the test on HOP-62; 60.3 µM (inactive) in the test on M14; 60.4 µM (inactive) in the test on DU-145; 45.5 µM (inactive) in the test with EKVX; 31 µM (inactive) in the test with UACC-62. The GI50 in the test on UACC-257 is 34.2 µM (inactive).
Turning to `CC1(C)COC(c2ccccc2-c2ccccc2)=N1`, the GI50 in the test on OVCAR-3 was > 100 µM (inactive); in the test on HOP-92 it was > 100 µM (inactive); with CAKI-1 it was 81.3 µM (inactive); in the test with SNB-19, 71.6 µM (inactive); in the test with SF-539, > 100 µM (inactive); with MDA-MB-435, > 100 µM (inactive). Further, the GI50 in the test on Malme-3M is > 100 µM (inactive); in the test on U-251, 89.5 µM (inactive); in the test with NCI/ADR-RES it was > 100 µM (inactive); in the test on SW-620, > 100 µM (inactive); with OVCAR-5, > 100 µM (inactive); in the test with NCI-H522, 38.7 µM (inactive). Besides, the GI50 is > 100 µM (inactive) in the test with HOP-62; > 100 µM (inactive) with M14; > 100 µM (inactive) with DU-145; 72.1 µM (inactive) in the test on EKVX; 54.6 µM (inactive) with UACC-62; 66.1 µM (inactive) with UACC-257.
As to `COc1cc(/C=N\N(C)C)cc(/C=N/N(C)C)c1O`, the GI50 with OVCAR-3 is 17.3 µM (inactive); in the test with HOP-92 it was 6.14 µM (inactive); with LOX IMVI, 25.1 µM (inactive); in the test on CAKI-1, 21.1 µM (inactive); with SNB-19, 30.6 µM (inactive); in the test on SF-539 it was 6.03 µM (inactive). Moreover, the GI50 is 25.9 µM (inactive) in the test with MDA-MB-435; 10.8 µM (inactive) with Malme-3M; 21.1 µM (inactive) in the test on U-251; 25.4 µM (inactive) in the test on NCI/ADR-RES; 46.7 µM (inactive) with SW-620; 65.9 µM (inactive) in the test on NCI-H522. In addition, the GI50 was 39.3 µM (inactive) in the test on HOP-62; 18.3 µM (inactive) in the test with M14; 68.7 µM (inactive) in the test with DU-145; 28.1 µM (inactive) with UACC-62; 28.6 µM (inactive) with UACC-257.
For `COc1cccc(C23CCN(C)C(CC(O)C2)C3)c1OC` (stereo unspecified), the GI50 in the test with OVCAR-3, in the test on HOP-92, with LOX IMVI, with CAKI-1, in the test with SNB-19 and with SF-539 was > 100 µM (inactive) in each case. For the same compound, the GI50 with MDA-MB-435, with Malme-3M, in the test on U-251, with NCI/ADR-RES, in the test with SW-620 and in the test on OVCAR-5 was > 100 µM (inactive) in each case. Also, the GI50 with NCI-H522, with HOP-62, in the test on M14, in the test with DU-145, with EKVX and with UACC-62 was > 100 µM (inactive) throughout. Further, the GI50 with UACC-257 is > 100 µM (inactive).
As to `Cc1nc(C)c(N2CCN(C(=O)O)CC2)c(O)n1`, the GI50 in the test with OVCAR-3 was > 100 µM (inactive); in the test with HOP-92, > 100 µM (inactive); with LOX IMVI, > 100 µM (inactive); in the test with CAKI-1, 1.39 µM (inactive); with SNB-19, > 100 µM (inactive); with SF-539, > 100 µM (inactive). Further, the GI50 in the test with MDA-MB-435, with Malme-3M, in the test with U-251, in the test with NCI/ADR-RES, with SW-620 and with NCI-H522 was > 100 µM (inactive) throughout. Further, the GI50 in the test with HOP-62, with M14, with DU-145, in the test with EKVX, in the test with UACC-62 and in the test with UACC-257 was > 100 µM (inactive) in each case.
On to `Cc1cccc(/C=N/NC(=S)NC(C)(C)C)n1`, for which the GI50 in the test with OVCAR-3 is 30.8 µM (inactive); in the test with LOX IMVI, 66.5 µM (inactive); with SNB-75 it was > 100 µM (inactive); with CAKI-1, > 100 µM (inactive); in the test with SNB-19, > 100 µM (inactive); in the test on SF-539 it was > 100 µM (inactive). The GI50 was > 100 µM (inactive) with MDA-MB-435; > 100 µM (inactive) in the test with Malme-3M; 93.3 µM (inactive) with U-251; 33.7 µM (inactive) with NCI/ADR-RES; 16 µM (inactive) with SW-620; 95.1 µM (inactive) in the test on OVCAR-5. Also, the GI50 with NCI-H522 was 14.5 µM (inactive); with HOP-62 it was 98.9 µM (inactive); with M14, 88.7 µM (inactive); with DU-145, 66.8 µM (inactive); in the test on UACC-62, 66.4 µM (inactive); in the test with UACC-257, > 100 µM (inactive).
As for `Cc1ccc(/C=C2/NC(=S)SC2=O)cc1`, the GI50 in the test on OVCAR-3 is 43.7 µM (inactive); in the test with HOP-92, 43.8 µM (inactive); with LOX IMVI it was 32.8 µM (inactive); in the test with SNB-75, 20.7 µM (inactive); with CAKI-1, 19.6 µM (inactive); with SNB-19, 29.5 µM (inactive). The GI50 was 30 µM (inactive) with SF-539; 36.5 µM (inactive) in the test on MDA-MB-435; 43.9 µM (inactive) in the test on U-251; 22.5 µM (inactive) in the test with NCI/ADR-RES; 54.2 µM (inactive) in the test on SW-620; 40.8 µM (inactive) in the test on OVCAR-5. Besides, the GI50 in the test with HOP-62 was 51.6 µM (inactive); in the test with M14, 33 µM (inactive); with DU-145, 58.5 µM (inactive); in the test on EKVX it was 28.4 µM (inactive); in the test on UACC-257 it was 31.4 µM (inactive).
`ClC(Cl)(Cl)C1CCOC1n1nnc2ccccc21` (stereo unspecified): the GI50 was > 100 µM (inactive) in the test on OVCAR-3; 1.2 µM (inactive) in the test on SNB-75; > 100 µM (inactive) in the test with CAKI-1; > 100 µM (inactive) in the test on SF-539; > 100 µM (inactive) with MDA-MB-435; > 100 µM (inactive) with Malme-3M. In addition, the GI50 was 90.4 µM (inactive) with U-251; 42.2 µM (inactive) in the test on NCI/ADR-RES; > 100 µM (inactive) in the test on OVCAR-5; 82.4 µM (inactive) with NCI-H522; > 100 µM (inactive) with HOP-62; > 100 µM (inactive) in the test on M14. Moreover, the GI50 in the test on DU-145, with EKVX, in the test on UACC-62 and in the test with UACC-257 was > 100 µM (inactive) each time.
Consider `C=C(C)C1CC/C(C)=C/CC[C@]2(C)O[C@H]2CC/C(COC(C)=O)=C\[C@@H]1O` (stereo partly specified), for which the GI50 was > 50 µM (inactive) in the test with OVCAR-3; > 50 µM (inactive) in the test on HOP-92; > 50 µM (inactive) with CAKI-1; > 50 µM (inactive) in the test with SNB-19; > 50 µM (inactive) in the test on SF-539; 22.7 µM (inactive) in the test with MDA-MB-435. The GI50 in the test on U-251 was > 50 µM (inactive); with NCI/ADR-RES, 20.7 µM (inactive); in the test with SW-620, > 50 µM (inactive); in the test with OVCAR-5 it was > 50 µM (inactive); with NCI-H522, 19.2 µM (inactive); in the test with HOP-62 it was 28.8 µM (inactive). Moreover, the GI50 with DU-145, in the test on EKVX, with UACC-62 and with UACC-257 was > 50 µM (inactive) in each case.
As for `CC1CC[C@@]2(OC1)OC1CC3C4CCC5C[C@@H](OC6OC(CO)C(OC7OC(CO)C(O)C(OC8OC(CO)C(O)C(OC9OC(CO)C(O)C(O)C9O)C8O)C7OC7OC(CO)C(O)C(O)C7O)C(O)C6O)[C@H](O)C[C@]5(C)C4CC[C@]3(C)C1[C@@H]2C` (stereo partly specified), the GI50 with OVCAR-3, with HOP-92, in the test with LOX IMVI, with SNB-75, in the test with CAKI-1 and with SNB-19 was > 80.5 µM (inactive) each time. The GI50 with SF-539, in the test with MDA-MB-435, in the test with Malme-3M, in the test on U-251, in the test with NCI/ADR-RES and with SW-620 was > 80.5 µM (inactive) each time. Also, the GI50 in the test on OVCAR-5, in the test on HOP-62, with M14, in the test with DU-145, in the test on EKVX and with UACC-62 was > 80.5 µM (inactive) each time. In the test on UACC-257, the GI50 is > 80.5 µM (inactive).
